By IC50 is commonly meant the point on the concentration scale where inhibition reaches its midpoint. Read a high IC50 as lower potency.

Assay [1] addresses Bone morphogenetic protein receptor type-1A (Homo sapiens, UniProt P36894). Put plainly: Luminescence-Based ADPGlo Kinase Activity Assay: Example 53: The assays were performed in 384-well, low volume microtiter assay plates in a final reaction volume of 6 ul. Dose-response curves were generated by incubating 10 nM of each kinase in 50 mM Hepes pH 7.5, 0.02% Tween 20, 0.02% BSA, 1 mM DTT, 10 uM Na3VO4, 10 mM ß-Glycerolphosphate, 1 mM MgCl2, 12 mM MnCl2 and 15 uM ATP for 60 min at 32° ….
Description: The amount of generated ADP is a measure of kinase activity and is quantified using the ADP-Glo Kinase Assay (Promega) according to manufacturer's instructions. ADP is converted to ATP by adding 3 ul of ADP-Glo Reagent and incubation at 32° C. for 60 min. ATP is subsequently converted into a bioluminescent signal by adding 6 ul luciferase assay reagents (Kinase detection buffer+Kinase Detection Substrate (Promega)) and further incubation at 32° C. for 60 min. […] The luminescent signal positively correlates with kinase activity.

Assay [2] concerns the target Activin receptor type-1-like (Homo sapiens, UniProt P37023). The experiment in a line: (§1) In Vitro Enzyme Inhibition Using a Biochemical Peptide Phosphorylation Assay- Caliper Assay: Example 54:The assays were performed in 384-well, low volume microtiter assay plates in a final reaction volume of 9 ul.
In assay [3] the target is T1, Activin receptor type-1 (Homo sapiens, UniProt Q04771).
T1 sequence (Q04771 whole entry): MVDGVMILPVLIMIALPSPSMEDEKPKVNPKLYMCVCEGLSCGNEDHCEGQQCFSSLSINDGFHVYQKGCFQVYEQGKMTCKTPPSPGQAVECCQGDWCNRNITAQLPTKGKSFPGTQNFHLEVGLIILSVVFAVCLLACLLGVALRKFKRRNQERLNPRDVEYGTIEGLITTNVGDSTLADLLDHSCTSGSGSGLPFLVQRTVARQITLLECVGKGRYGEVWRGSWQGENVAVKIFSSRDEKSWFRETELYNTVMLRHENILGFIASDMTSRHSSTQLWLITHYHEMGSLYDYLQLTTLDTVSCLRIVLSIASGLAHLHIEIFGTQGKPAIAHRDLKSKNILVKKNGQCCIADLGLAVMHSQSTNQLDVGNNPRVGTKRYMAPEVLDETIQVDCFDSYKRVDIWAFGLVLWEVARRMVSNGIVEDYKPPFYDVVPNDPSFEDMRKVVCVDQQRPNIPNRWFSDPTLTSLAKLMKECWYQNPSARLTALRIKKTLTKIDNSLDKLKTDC
The assay is described as §1.

For the next assay, the target named is T2, TGF-beta receptor type-1 (Homo sapiens, UniProt P36897).
T2 sequence (P36897 whole entry): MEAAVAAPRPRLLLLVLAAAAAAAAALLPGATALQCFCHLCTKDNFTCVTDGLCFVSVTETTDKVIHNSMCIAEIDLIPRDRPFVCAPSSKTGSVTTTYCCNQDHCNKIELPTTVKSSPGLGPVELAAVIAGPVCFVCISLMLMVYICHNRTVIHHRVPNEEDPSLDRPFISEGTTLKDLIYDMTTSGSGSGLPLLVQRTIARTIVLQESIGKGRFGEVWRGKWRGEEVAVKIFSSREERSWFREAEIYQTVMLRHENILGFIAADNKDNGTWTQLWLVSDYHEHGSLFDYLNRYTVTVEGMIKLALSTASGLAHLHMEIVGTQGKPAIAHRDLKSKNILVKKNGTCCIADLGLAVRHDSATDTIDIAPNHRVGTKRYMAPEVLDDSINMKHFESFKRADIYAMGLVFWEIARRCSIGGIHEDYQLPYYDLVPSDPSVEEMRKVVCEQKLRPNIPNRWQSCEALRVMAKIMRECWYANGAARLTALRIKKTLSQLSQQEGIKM
The description is as §1.

The target of assay [4] is Bone morphogenetic protein receptor type-1B (Homo sapiens, UniProt O00238). Put plainly: In Vitro Enzyme Inhibition Using a Biochemical Peptide Phosphorylation Assay- Caliper Assay: Example 54:The assays were performed in 384-well, low volume microtiter assay plates in a final reaction volume of 9 ul. Dose-response curves were generated by incubating 10 nM of each kinase together with 2 uM of the fluorescently labeled substrate peptide 5-Fluo-Ahx-KKYQAEEN-T-YDEYENKK-amid (10 mM stock ….
Chain of Bone morphogenetic protein receptor type-1B (O00238 whole entry): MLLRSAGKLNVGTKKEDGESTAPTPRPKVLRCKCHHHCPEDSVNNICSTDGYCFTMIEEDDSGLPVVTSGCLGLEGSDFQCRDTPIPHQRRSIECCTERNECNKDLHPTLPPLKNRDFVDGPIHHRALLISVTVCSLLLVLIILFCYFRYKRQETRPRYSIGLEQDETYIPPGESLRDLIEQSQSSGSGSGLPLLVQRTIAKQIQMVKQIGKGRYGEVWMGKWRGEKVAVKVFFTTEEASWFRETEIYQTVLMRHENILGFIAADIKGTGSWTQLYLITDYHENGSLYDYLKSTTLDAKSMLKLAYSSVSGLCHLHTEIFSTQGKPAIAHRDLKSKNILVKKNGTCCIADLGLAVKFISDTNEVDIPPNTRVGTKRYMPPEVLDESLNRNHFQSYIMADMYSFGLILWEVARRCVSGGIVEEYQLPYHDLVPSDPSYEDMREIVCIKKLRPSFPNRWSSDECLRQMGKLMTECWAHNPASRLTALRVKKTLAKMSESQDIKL

Assay [5] addresses T1, Activin receptor type-1. The experiment in a line: Luminescence-Based ADPGlo Kinase Activity Assay: Example 53: The assays were performed in 384-well, low volume microtiter assay plates in a final reaction volume of 6 ul. Dose-response curves were generated by incubating 10 nM of each kinase in 50 mM Hepes pH 7.5, 0.02% Tween 20, 0.02% BSA, 1 mM DTT, 10 uM Na3VO4, 10 mM ß-Glycerolphosphate, 1 mM MgCl2, 12 mM MnCl2 and 15 uM ATP for 60 min at 32° C. in the presence or absence of compound diluted in DMS. The amount of generated ADP is a measure of kinase activity and is quantified using the ADP-Glo Kinase Assay (Promega) according to manufacturer's instructions. […] and incubation at 32° C. for 60 min. ATP is subsequently converted into a bioluminescent signal by adding 6 ul luciferase assay reagents (Kinase detection buffer+Kinase Detection Substrate (Promega)) and further incubation at 32° C. for 60 min. For the measurement of luminescence a PHERAstar Multilabel Reader was used at a measurement interval time of 0.1 second (optical module for luminescence measurements in the 230 nm to 750 nm wavelength range). The luminescent signal positively correlates with kinase activity.

Chain of Activin receptor type-1-like (P37023 whole entry): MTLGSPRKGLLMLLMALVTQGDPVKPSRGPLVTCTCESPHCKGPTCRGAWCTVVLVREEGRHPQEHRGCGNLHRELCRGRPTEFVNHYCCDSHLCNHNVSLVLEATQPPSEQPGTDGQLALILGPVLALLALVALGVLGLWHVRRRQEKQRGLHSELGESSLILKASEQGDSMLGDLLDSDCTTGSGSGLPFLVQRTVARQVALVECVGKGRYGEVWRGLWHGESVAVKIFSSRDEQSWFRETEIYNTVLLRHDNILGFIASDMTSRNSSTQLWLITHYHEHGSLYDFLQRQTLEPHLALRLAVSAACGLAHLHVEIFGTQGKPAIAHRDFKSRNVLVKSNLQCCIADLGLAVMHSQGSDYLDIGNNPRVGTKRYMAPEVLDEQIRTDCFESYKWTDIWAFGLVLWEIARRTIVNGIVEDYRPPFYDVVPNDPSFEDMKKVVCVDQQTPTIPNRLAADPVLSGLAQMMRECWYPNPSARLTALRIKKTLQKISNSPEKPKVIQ
Chain of Bone morphogenetic protein receptor type-1A (P36894 whole entry): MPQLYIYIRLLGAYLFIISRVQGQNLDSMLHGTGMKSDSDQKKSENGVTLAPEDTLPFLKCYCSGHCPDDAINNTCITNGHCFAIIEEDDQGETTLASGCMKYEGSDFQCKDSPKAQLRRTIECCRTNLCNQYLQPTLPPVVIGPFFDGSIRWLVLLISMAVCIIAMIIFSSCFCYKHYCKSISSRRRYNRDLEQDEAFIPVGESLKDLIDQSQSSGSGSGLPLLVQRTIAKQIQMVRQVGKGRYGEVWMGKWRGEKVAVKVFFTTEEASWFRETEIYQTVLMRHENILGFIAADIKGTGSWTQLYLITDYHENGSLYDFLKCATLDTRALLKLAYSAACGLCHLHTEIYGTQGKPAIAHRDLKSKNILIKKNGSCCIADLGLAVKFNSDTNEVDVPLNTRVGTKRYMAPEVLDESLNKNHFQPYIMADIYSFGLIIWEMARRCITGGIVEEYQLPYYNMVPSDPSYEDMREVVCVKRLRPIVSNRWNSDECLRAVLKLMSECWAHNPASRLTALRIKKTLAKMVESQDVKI

Regarding `CC(C)CN1c2ccc(-c3cncc(-c4ccc(=O)n(C(C)C)c4)c3)cc2CS1(=O)=O`, the IC50 in assay [1] was found to be 930 nM; in assay [2], 690 nM; against Activin receptor type-1 [3], 160 nM; against TGF-beta receptor type-1 it was 2400 nM; in assay [4], 1200 nM; against Activin receptor type-1 [5], 110 nM.

For the origin of these results see ChEMBL document CHEMBL5728775, “Pyridinone derivatives and their use as selective ALK-2 inhibitors” (2021).
